The record followed here is ChEMBL document CHEMBL1156313, “Structure-activity relationship of novel DAPK inhibitors identified by structure-based virtual screening” (Bioorg Med Chem, 2010).

What is called inhibition is the change of the read-out against control, counted positive when it falls. By IC50 is commonly meant the concentration that gives 50% inhibition.

Experiment [1] deals with RAC-alpha serine/threonine-protein kinase (Homo sapiens) (UniProt P31749). Briefly: Inhibition of AKT1 at 10 uM.
Experiment [2] addresses Death-associated protein kinase 1 (Homo sapiens) (UniProt P53355). Briefly: Inhibition of DAPK1 at 10 uM.
For experiment [3], the target named is T1, Protein kinase C zeta type (Homo sapiens) (UniProt Q05513).
T1 sequence (whole entry): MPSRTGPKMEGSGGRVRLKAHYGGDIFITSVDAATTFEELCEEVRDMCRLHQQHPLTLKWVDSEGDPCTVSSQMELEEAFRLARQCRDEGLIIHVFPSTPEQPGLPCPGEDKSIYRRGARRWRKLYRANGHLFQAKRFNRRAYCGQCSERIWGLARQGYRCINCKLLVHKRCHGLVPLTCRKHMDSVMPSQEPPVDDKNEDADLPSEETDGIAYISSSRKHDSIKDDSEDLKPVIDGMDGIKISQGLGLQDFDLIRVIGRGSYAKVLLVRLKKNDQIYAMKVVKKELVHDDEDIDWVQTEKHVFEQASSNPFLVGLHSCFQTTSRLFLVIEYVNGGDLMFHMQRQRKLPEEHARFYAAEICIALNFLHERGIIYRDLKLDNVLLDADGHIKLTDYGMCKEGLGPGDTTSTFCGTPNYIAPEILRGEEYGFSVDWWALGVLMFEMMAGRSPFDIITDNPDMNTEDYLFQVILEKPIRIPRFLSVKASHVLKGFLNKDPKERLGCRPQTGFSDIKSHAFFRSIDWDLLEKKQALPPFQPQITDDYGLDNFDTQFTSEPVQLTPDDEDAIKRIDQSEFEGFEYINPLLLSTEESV
Briefly: Inhibition of PKCzeta at 10 uM.

Experiment [4] addresses Tyrosine-protein kinase Lck (Homo sapiens) (UniProt P06239). Briefly: Inhibition of LCK at 10 uM.
For experiment [5], the target named is MAP kinase-activated protein kinase 2 (Homo sapiens) (UniProt P49137). Briefly: Inhibition of MAPKAPK2 at 10 uM.
The target in experiment [6] is T2, Death-associated protein kinase 3 (Homo sapiens, UniProt O43293). Briefly: Inhibition of human recombinant DAPK3 at 10 uM.
Target sequence in this assay (O43293 whole entry, looked up): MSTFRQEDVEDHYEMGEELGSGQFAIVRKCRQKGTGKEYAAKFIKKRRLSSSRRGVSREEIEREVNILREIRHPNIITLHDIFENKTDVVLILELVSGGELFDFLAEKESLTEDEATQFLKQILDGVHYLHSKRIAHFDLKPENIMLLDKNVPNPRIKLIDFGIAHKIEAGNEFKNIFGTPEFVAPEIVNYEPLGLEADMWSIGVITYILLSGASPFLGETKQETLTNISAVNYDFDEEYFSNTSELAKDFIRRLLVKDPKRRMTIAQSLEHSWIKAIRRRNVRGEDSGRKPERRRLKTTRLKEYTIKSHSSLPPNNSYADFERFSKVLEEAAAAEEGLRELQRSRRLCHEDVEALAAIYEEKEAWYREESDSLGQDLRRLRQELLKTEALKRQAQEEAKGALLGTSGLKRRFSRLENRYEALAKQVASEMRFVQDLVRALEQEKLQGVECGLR
In experiment [7] the target is Serine/threonine-protein kinase Chk2 (Homo sapiens) (UniProt O96017). Briefly: Inhibition of CHK2 at 10 uM.
Experiment [8] has as its target T3, Serine/threonine-protein kinase Chk1 (Homo sapiens) (UniProt O14757).
T3 sequence (whole entry): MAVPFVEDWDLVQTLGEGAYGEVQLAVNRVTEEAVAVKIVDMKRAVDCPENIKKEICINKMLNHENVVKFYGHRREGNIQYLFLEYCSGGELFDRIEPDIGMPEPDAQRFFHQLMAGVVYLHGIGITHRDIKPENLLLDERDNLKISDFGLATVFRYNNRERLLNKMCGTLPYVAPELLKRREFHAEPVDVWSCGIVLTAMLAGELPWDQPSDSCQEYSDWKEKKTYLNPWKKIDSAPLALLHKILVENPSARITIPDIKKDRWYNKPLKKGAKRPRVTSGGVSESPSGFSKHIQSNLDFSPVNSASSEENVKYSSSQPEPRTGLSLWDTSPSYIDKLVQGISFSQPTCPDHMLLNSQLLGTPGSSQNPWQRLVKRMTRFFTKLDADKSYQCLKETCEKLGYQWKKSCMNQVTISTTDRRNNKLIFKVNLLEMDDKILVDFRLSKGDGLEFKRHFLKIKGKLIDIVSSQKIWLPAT
The experiment in a line: Inhibition of CHK1 at 10 uM.

For experiment [9], the target named is Tyrosine-protein kinase ABL1 (Homo sapiens) (UniProt P00519). Briefly: Inhibition of ABL at 10 uM.
In experiment [10] the target is Glycogen synthase kinase-3 beta (Homo sapiens) (UniProt P49841). Briefly: Inhibition of GSK3-beta at 10 uM.
The target of experiment [11] is Tyrosine-protein kinase Lyn (Homo sapiens) (UniProt P07948). The experiment in a line: Inhibition of LYN at 10 uM.
Experiment [12] concerns the target Ribosomal protein S6 kinase alpha-1 (Homo sapiens) (UniProt Q15418). The experiment in a line: Inhibition of RSK1 at 10 uM.
Experiment [13] has as its target Insulin receptor (Homo sapiens) (UniProt P06213). The experiment in a line: Inhibition of INSR at 10 uM.
For experiment [14], the target named is Proto-oncogene tyrosine-protein kinase Src (Homo sapiens) (UniProt P12931). Briefly: Inhibition of SRC at 10 uM.
The target of experiment [15] is Ribosomal protein S6 kinase alpha-5 (Homo sapiens) (UniProt O75582). The experiment in a line: Inhibition of MSK1 at 10 uM.
The target of experiment [16] is Mitogen-activated protein kinase 1 (Homo sapiens) (UniProt P28482). Briefly: Inhibition of ERK2 at 10 uM.
Experiment [17] addresses Mitogen-activated protein kinase 3 (Homo sapiens) (UniProt P27361). Briefly: Inhibition of ERK1 at 10 uM.
Experiment [18] concerns the target T4, Aurora kinase A (Homo sapiens) (UniProt O14965).
T4 sequence (whole entry): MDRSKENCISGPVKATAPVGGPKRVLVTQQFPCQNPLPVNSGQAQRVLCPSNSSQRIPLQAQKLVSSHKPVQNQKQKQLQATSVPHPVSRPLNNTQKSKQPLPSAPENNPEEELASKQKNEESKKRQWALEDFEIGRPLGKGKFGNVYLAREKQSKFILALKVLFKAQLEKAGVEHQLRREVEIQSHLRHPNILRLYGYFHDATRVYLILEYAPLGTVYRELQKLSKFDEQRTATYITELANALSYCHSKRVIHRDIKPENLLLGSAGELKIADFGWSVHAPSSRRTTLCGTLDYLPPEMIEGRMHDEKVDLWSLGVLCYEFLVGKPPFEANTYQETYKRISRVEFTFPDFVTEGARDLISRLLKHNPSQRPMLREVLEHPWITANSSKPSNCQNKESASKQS
Briefly: Inhibition of Aurora A at 10 uM.

The target of experiment [19] is Hepatocyte growth factor receptor (Homo sapiens) (UniProt P08581). Briefly: Inhibition of MET at 10 uM.
Experiment [20] addresses RAC-beta serine/threonine-protein kinase (Homo sapiens) (UniProt P31751). The experiment in a line: Inhibition of AKT2 at 10 uM.
Experiment [21] concerns the target Mitogen-activated protein kinase 14 (Homo sapiens) (UniProt Q16539). The experiment in a line: Inhibition of P38alpha at 10 uM.
Experiment [22] has as its target MAP kinase-activated protein kinase 5 (Homo sapiens) (UniProt Q8IW41). Briefly: Inhibition of PRAK at 10 uM.
Experiment [23] addresses Tyrosine-protein kinase Fyn (Homo sapiens) (UniProt P06241). The experiment in a line: Inhibition of FYN at 10 uM.
For experiment [24], the target named is T2, Death-associated protein kinase 3. The experiment in a line: Inhibition of human recombinant DAPK3.
Target sequence in this assay (O43293 whole entry): as the sequence (O43293 whole entry, looked up) above
The target in experiment [25] is T5, Serine/threonine-protein kinase D2 (Homo sapiens) (UniProt Q9BZL6).
T5 sequence (whole entry): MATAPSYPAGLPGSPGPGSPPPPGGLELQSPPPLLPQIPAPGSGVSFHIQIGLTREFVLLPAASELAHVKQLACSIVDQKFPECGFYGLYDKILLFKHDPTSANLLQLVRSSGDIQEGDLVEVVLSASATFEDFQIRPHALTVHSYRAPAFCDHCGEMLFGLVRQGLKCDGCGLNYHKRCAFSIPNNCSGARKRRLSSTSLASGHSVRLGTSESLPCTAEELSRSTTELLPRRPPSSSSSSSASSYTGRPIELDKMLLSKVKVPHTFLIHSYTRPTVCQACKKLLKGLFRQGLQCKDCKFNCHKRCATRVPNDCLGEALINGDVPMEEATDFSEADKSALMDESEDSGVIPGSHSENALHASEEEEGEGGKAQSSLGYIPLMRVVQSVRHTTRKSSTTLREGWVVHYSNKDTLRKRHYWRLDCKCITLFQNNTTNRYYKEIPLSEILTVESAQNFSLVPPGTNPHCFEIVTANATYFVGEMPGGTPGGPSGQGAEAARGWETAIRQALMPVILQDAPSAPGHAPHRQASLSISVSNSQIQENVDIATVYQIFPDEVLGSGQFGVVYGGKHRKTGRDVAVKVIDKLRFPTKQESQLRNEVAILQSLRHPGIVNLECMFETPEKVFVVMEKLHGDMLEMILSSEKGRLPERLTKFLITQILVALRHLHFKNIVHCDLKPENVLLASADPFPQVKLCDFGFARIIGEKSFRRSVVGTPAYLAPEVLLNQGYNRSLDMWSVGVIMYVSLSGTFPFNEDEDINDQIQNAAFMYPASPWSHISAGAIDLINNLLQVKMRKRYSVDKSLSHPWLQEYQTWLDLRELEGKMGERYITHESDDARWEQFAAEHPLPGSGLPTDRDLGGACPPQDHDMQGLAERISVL
The experiment in a line: Inhibition of PKD2 at 10 uM.

Experiment [26] addresses T2, Death-associated protein kinase 3. Briefly: Inhibition of human recombinant DAPK3 at 1 uM.
Target sequence in this assay (O43293 whole entry, looked up): as the sequence (O43293 whole entry, looked up) above
A short description of experiment [27]: Inhibition of PKA at 10 uM.

SMILES strings stand for the structures.

Serine/threonine-protein kinase Chk2 (Homo sapiens), sequence (O96017 whole entry): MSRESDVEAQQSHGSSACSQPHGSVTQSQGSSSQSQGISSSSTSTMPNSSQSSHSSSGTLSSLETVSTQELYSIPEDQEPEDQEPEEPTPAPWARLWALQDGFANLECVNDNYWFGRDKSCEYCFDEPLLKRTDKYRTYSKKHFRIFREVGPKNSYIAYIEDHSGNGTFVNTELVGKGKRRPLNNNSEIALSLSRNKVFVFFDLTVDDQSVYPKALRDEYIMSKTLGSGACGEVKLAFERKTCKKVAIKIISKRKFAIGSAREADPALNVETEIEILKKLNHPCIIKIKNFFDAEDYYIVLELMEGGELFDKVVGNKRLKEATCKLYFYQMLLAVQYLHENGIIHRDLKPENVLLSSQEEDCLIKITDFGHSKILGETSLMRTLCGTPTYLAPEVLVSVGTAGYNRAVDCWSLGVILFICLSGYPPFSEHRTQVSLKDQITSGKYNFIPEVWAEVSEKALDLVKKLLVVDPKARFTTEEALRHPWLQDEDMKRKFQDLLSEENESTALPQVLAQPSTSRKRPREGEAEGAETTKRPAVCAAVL
Tyrosine-protein kinase Lyn (Homo sapiens), sequence (P07948 2-512 limits assumed): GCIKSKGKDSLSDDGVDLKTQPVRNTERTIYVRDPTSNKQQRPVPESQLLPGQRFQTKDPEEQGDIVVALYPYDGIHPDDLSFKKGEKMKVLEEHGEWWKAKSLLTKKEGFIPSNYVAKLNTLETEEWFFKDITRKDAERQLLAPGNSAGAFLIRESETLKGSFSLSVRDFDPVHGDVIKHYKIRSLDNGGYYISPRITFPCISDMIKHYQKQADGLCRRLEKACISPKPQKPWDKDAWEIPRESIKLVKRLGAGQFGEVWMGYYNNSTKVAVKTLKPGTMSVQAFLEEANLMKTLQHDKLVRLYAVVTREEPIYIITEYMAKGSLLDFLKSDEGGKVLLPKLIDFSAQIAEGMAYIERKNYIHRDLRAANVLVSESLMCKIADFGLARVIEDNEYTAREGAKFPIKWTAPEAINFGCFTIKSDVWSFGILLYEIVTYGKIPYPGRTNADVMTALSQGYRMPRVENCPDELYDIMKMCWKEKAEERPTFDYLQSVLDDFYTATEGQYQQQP
Mitogen-activated protein kinase 14 (Homo sapiens), sequence (Q16539 whole entry): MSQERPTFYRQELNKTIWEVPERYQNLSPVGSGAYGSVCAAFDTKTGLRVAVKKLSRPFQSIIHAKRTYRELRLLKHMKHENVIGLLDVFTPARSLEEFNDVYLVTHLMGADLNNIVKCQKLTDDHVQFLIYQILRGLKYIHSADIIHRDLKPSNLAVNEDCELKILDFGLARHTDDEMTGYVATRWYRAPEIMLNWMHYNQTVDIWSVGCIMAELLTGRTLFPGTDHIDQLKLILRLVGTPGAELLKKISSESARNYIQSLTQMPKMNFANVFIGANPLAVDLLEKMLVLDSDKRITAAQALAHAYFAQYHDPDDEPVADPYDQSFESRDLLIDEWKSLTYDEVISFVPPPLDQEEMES
Tyrosine-protein kinase Fyn (Homo sapiens), sequence (P06241 2-537 limits assumed): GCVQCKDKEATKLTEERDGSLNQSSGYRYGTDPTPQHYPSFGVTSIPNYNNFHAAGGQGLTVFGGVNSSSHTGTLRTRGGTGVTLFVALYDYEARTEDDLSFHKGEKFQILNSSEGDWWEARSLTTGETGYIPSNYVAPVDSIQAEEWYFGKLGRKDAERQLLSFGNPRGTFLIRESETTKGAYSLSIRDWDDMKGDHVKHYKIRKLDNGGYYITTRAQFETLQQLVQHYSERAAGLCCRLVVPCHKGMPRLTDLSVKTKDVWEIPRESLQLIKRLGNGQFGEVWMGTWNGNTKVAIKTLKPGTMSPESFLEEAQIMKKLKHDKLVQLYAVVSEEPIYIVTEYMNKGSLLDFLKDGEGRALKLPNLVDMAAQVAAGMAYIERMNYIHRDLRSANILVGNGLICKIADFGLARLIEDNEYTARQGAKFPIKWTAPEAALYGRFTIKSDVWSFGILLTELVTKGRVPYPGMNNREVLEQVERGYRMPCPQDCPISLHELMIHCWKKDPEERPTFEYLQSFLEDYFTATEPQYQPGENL
RAC-alpha serine/threonine-protein kinase (Homo sapiens), sequence (P31749 whole entry): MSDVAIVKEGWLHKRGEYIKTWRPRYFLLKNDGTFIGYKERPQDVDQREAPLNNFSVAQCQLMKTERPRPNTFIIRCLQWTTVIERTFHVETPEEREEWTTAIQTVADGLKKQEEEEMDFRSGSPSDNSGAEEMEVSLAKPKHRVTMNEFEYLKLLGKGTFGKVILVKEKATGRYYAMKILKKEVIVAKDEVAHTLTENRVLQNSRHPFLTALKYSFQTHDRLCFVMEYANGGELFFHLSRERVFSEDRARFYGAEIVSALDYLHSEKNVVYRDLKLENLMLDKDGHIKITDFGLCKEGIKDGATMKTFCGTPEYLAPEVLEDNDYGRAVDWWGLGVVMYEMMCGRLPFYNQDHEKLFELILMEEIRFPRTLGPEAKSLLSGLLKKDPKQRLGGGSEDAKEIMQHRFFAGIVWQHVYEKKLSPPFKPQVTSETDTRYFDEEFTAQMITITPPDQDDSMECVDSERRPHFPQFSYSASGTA
Tyrosine-protein kinase ABL1 (Homo sapiens), sequence (P00519 whole entry): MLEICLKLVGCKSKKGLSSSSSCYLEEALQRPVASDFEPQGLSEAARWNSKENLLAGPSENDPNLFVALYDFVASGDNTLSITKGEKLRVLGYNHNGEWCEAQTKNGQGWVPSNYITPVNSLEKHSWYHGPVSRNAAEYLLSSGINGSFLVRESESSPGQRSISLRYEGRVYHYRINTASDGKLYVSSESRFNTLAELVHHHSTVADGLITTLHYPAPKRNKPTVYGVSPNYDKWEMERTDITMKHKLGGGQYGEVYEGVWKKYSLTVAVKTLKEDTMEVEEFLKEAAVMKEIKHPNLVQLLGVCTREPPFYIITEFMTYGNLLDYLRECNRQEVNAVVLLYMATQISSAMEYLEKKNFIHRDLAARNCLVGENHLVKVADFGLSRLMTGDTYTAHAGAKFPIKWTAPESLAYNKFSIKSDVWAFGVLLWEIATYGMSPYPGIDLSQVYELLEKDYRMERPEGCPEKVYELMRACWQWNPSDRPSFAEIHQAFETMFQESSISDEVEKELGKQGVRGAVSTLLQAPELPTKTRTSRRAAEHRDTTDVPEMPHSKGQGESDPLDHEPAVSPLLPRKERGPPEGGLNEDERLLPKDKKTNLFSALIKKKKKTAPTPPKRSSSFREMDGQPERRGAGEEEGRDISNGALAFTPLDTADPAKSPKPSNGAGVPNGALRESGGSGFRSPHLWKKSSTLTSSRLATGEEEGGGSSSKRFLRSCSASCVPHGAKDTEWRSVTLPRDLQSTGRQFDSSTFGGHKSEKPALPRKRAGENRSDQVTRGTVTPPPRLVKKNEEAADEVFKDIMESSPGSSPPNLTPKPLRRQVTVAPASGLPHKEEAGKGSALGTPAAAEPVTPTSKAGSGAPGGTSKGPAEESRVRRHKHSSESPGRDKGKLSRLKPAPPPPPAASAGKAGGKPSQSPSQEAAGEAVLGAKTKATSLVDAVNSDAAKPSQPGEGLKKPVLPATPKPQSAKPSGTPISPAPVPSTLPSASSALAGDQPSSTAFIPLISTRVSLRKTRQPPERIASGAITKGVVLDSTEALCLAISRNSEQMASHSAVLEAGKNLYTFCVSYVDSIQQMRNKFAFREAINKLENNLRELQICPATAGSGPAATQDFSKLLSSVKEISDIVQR
MAP kinase-activated protein kinase 2 (Homo sapiens), sequence (P49137 whole entry, looked up): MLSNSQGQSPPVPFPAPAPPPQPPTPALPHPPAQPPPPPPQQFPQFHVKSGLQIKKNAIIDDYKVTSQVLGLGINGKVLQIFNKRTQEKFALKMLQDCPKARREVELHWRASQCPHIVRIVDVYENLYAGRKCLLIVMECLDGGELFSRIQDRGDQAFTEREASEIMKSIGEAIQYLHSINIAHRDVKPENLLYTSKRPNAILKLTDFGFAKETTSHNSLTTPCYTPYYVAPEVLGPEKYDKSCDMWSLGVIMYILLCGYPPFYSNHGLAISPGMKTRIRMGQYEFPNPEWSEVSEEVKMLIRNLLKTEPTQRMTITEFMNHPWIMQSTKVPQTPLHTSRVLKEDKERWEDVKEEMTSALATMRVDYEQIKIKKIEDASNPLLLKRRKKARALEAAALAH
Glycogen synthase kinase-3 beta (Homo sapiens), sequence (P49841 whole entry, looked up): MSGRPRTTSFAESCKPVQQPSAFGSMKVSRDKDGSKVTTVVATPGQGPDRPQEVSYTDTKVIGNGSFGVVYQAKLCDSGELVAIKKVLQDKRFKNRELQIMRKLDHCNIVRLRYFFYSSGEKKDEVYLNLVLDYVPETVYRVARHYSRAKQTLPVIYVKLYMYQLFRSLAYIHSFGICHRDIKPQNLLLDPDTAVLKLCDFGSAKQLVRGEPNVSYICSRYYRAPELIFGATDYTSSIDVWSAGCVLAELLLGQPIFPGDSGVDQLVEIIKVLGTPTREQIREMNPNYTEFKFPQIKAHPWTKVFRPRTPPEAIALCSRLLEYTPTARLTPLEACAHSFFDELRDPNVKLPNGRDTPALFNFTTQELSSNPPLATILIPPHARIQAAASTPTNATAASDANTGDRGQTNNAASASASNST

`O=C1OC(/C=C/c2ccccc2)=NC/1=C\c1cccnc1`: the inhibition came to 15% in experiment [1]; 91% in experiment [2]; 3% in [3]; 8% in experiment [4]; 46% in [5]; 100% in [6]. Besides, the inhibition is 17% in experiment [7]; 12% in experiment [8]; 9% in experiment [9]; 3% in [10]; 1% in experiment [11]; 4% in [12]. The inhibition in [13] worked out at 4%; in [14], 5%; in [15] it was 13%; in experiment [16] it was 20%; in [17] it was 7%; in experiment [18], 14%. Besides, the inhibition was 3% in experiment [19]; 17% in experiment [20]; 8% in experiment [21]; 5% in experiment [22]; 1% in [23].

As for `O=C1OC(c2ccccc2)=N/C1=C\c1cccnc1`, the inhibition in experiment [1] turned out to be 12%; in experiment [2] it was 98%; in experiment [3], 3%; in [4], 9%; in [5], 5%; in experiment [7], 4%. The inhibition in experiment [8] turned out to be 3%; in experiment [25] it was 7%; in [9], 16%; in [10], 9%; in experiment [11] it was 10%; in [12], 5%. For the same compound, the inhibition was found to be 7% in experiment [13]; 13% in [14]; 7% in experiment [16]; 16% in experiment [17]; 6% in [18]; 3% in [19]. Further, the inhibition was 13% in experiment [20], 3% in [21] and 6% in experiment [23]. For the same compound, in experiment [24], the IC50 was determined as 583 nM.

For the compound `Cc1cc(C2=N/C(=C\c3cccnc3)C(=O)O2)ccc1Br`, the inhibition came out at 12% in experiment [1]; 82% in [2]; 5% in experiment [3]; 2% in [5]; 94% in [6]; 19% in experiment [7]. Besides, the inhibition was found to be 5% in experiment [8]; 11% in experiment [25]; 7% in experiment [9]; 0% in [11]; 13% in experiment [12]; 0% in experiment [13]. Further, the inhibition amounted to 2% in experiment [14]; 18% in experiment [17]; 16% in experiment [18]; 88% in experiment [26]; 19% in experiment [27]; 28% in [20]. Moreover, the inhibition was 5% in experiment [21], 10% in [22] and 9% in [23]. In addition, in experiment [24], the IC50 turned out to be 278 nM.

On to `O=C1OC(c2ccc(Cl)cc2)=N/C1=C\c1cccnc1`, for which the inhibition in experiment [1] was 13%; in experiment [2], 76%; in experiment [3], -3%; in [4] it was 8%; in [6], 96%; in experiment [7], 24%. Further, the inhibition in experiment [8] turned out to be 12%; in experiment [25], 17%; in [10], 7%; in [12], 10%; in experiment [14], 3%; in experiment [15] it was 0%. Also, the inhibition in [16] came out at 10%; in [17], 25%; in [18], 15%; in experiment [26], 85%; in [27] it was 9%; in experiment [20], 17%. Besides, the inhibition in [21] is 2%. Further, in experiment [24], the IC50 worked out at 529 nM.
